Measured values taken from ChEMBL document CHEMBL3507680, “University of Dundee, Gates Library screen for HepG2 cell viability”.

Assay: Human HepG2 cell viability assay in 384 well format
Format: toxicity, cell-based
Design: dose 125 nL, time 70.5 hour; cytotoxicity at 70.5 h: concentration not given beside the values
Settings: HepG2 cells, read-out: Inhibition

Structure (SMILES)	cytotoxicity at 70.5 h [%]
Cn1cccc1C(=O)N1CC[C@H]2[C@H](CO[C@H]2CNS(C)(=O)=O)C1	-4.35
CCc1ccccc1C(=O)NS(=O)(=O)CCCC#N	10.5
CCN(CC)[C@@H]1CN(S(=O)(=O)c2cn(C)cn2)[C@@H]2CCCO[C@H]12	26.4
CCOC(=O)CN1C(=O)CN(S(C)(=O)=O)CCC(OC)c2ccccc21 (configuration not stated)	-8.31
CC(C)c1cc(N2CCC3(CC2)CN(C)CCN3C)ncn1	-4.93
CC1(C)[C@H]2CC=C(CN3CCCn4nc(CNS(C)(=O)=O)cc4C3)[C@@H]1C2	-8.88
Cc1ccc(C2CSCCN2C(=O)c2cc(C(N)=O)cs2)o1 (configuration not stated)	-8.27
CCc1nccc(CN2CCCC(CNC(=O)c3ccccn3)C2)n1 (configuration not stated)	-3.62
CN1CCN(Cc2cnc3n2CCN(C(=O)N2CCCC2)C3)CC1	-14.4
O=C(C1CCCN1Cc1nc(-c2ccco2)no1)N1CCSCC1 (configuration not stated)	-5.08
Cc1ccc2oc(=O)n(CCC(=O)N3CCC4(CN(C)C(=O)O4)C3)c2c1 (configuration not stated)	-1.59
N#Cc1ccccc1C(=O)N1C[C@H]2CC[C@@H]1CN(c1ncccn1)C2	18.3
NC(=O)c1cc(C2CCCN(Cc3ccc4c(c3)OCCO4)C2)n[nH]1 (configuration not stated)	-22.9
CN(CC1(O)CCCC1)C(=O)c1cccc(Nc2cnccn2)c1	-19.5
O=C(Cc1ccc2c(c1)CCC2)N1CCCC(n2cccn2)C1 (configuration not stated)	-6.54
COCCN(Cc1ccncc1)C(=O)CCSCc1ccc(F)cc1	20
Cc1nnsc1C(=O)NCc1nn(C)c2c1COCC2	-13.8
c1ccc(O[C@H]2COCCN(Cc3cccc4c3OCO4)C2)cc1	-1.37
COc1ccc(C(=O)NS(=O)(=O)c2ccc(CNC(C)=O)s2)cc1	-4.22
O=C(c1cncnc1)N1Cc2ccccc2OC2(CCOCC2)C1	2.98
O=C1O[C@@H]2CN(Cc3ccsc3)C[C@@H]2N1Cc1ccccn1	2.38
O=C(NCc1cccnc1)[C@@H]1CC[C@@H]2[C@@H](CCN2c2ncc(F)cn2)O1	-3.65
O=C(NCCn1ccnc1)NCC(c1ccco1)N1CCCCC1 (configuration not stated)	-9.78

Structure (SMILES)	cytotoxicity at 70.5 h [%]
CCOc1ccc(CC(CNC(=O)c2ccc(C)o2)C(N)=O)cc1 (configuration not stated)	-10.7
CCNC(=O)Cc1ccc(-c2cccc3c2CCNC3)cc1	-17.3
CCOC1CCN(C(=O)Nc2ccc(=O)n(C)c2)CC1	25
O=C(c1nnn(-c2ccccc2Cl)c1-c1ccccn1)N1CCSCC1	-2.09
Cn1cc(CN2CCc3c(cnc(-c4ccccc4)c3C(=O)O)C2)cn1	-5.39
Cc1noc(CN2CCN(C(=O)c3ccccn3)CC2)n1	-8.75
O=C(c1ccoc1)N1CCC(NCc2cccnc2)CC1	4.06
COC(=O)N1CCC2(CC1)N=C(CCC(C)C)NC2=O	-8.4
NC1CCN(S(=O)(=O)c2ccc(C(=O)N3CCSCC3)cc2)C1 (configuration not stated)	-9.37
CC(C)c1cc(N2CCC(N(C)C)C2)n2nccc2n1 (configuration not stated)	-8.85
c1ccc(-c2ncc(CNC3CCc4ncnn4C3)cn2)cc1 (configuration not stated)	-11
Cc1ncsc1CN1C[C@@H]2COC[C@]2(C(=O)NC(C)C)C1	-11.1
CN1CCN(c2ncnc3c2CCN(C(=O)c2cccn2C)CC3)CC1	6.05
O=C(c1ccoc1)N1CC[C@@H]2[C@@H](CC1)OCCN2c1cccnc1	-5.9
Cc1nc2n(n1)CC(NCc1nnc(C(C)(C)C)o1)CC2 (configuration not stated)	-6.83
CCC1COCCN1C(=O)CNC(=O)c1ccoc1C (configuration not stated)	-5.54
NC(=O)c1cnn2c1NCC(CNCC1(c3ccccc3)CCC1)C2 (configuration not stated)	10.4
CN(C)C(=O)c1cccc(NC(=O)N2CCCC(C(F)(F)F)C2)c1 (configuration not stated)	-8.44
CCOCc1nn(CC2CC2)c2c1CN(C(=O)c1ccno1)CC2	-7.44
FC(F)c1nnc2ccc(N3CCC4(CCCCC4)C3)nn12	-3.87
CCn1c(C)nnc1SCCNC(=O)c1cnc(N(C)C)nc1C	-2.09
CCn1c(C2CCN(C(=O)CCc3cc(Cl)no3)CC2)nn(C)c1=O	-6.98
CCC(NC(=O)c1ccc2[nH]ccc2c1)C(=O)N1CCOCC1 (configuration not stated)	6.49

Structure (SMILES)	cytotoxicity at 70.5 h [%]
CN(Cc1ccco1)Cc1cncc2c1CCN(S(C)(=O)=O)C2	-8.46
Cc1ccc2c(C)c(C(=O)NCCc3csc(N)n3)oc2c1	7.44
Cc1nc2c(c(NCc3ccc(-c4ccccn4)s3)n1)CCNCC2	-8.23
Cc1ccc(-c2ccnc(NC(C)c3n[nH]c(=O)[nH]3)n2)c(C)n1 (configuration not stated)	-12.8
CCS(=O)(=O)N1CCN(C(C)c2ccccc2OC)CC1 (configuration not stated)	-10.2
O=C(NC1CCN(Cc2cccc3c2OCCO3)CC1)c1cccs1	0.406
Fc1ccccc1Cn1c(C2CCNCC2)cc2cccnc21	-4.77
COCCn1ccc2cc(NC(C)=O)ccc21	-5.43
Cc1noc(CNC(=O)NCCc2ccc(Cl)cc2)n1	-3.31
COCCN1C(=O)[C@]2(CC[C@@H]3CN(C(=O)NCC(C)C)C[C@@H]32)N=C1C	-10
CN(C)S(=O)(=O)N1CCC(c2n[nH]cc2-c2ccnc(N)c2)C1 (configuration not stated)	5.75
C[C@H](NC(=O)OC(C)(C)C)c1nnc(S(=O)(=O)Cc2cccc(F)c2)o1	-6.88
O=S(=O)(NC1CCCCC12OCCO2)c1cc(F)cc(F)c1 (configuration not stated)	-3.19
COC(=O)c1ccc(-c2ccc(/C=C3\C(=O)NC(=N)N3C)o2)cc1	12.1
CC(=O)c1ccc(-n2c(C)cn(CCC(=O)NC(N)=O)c2=O)cc1	-14.8
O=C(C1CCOC1)N1CCC2(CCNCC2)C1 (configuration not stated)	27.5
CSc1ccc(CN2C[C@@H]3CC[C@@](O)(c4ccc(C)cn4)[C@@H]3C2)cc1	41.8
CCc1nccn1C1CCCN(C(=O)c2ccc(NC3CC3)nc2)C1 (configuration not stated)	-2.23
CCCC(=O)N(CCN1CCOCC1)c1nc2c(OC)ccc(C)c2s1	-7.03
CN(Cc1nc(Cc2cccc(C(F)(F)F)c2)no1)C1CCCCC1	-10.4
Cc1ncsc1C(=O)N1CCN(Cc2cscn2)CC1	-1.83
CCCN(C)S(=O)(=O)N1CCCC1c1ccco1 (configuration not stated)	1.45
CCNc1ncc(C(=O)NCc2csc(-c3cnccn3)n2)cn1	-10.4

Structure (SMILES)	cytotoxicity at 70.5 h [%]
COc1cccc2cc(CNCc3ccnc(N(C)C)c3)oc12	7.6
CCn1ccnc1-c1nc2cc(S(=O)(=O)N3CCCC3)ccc2n1C	-3.32
CCN(Cc1ccco1)C(=O)NCc1nnc2n1CCC2	-13.2
Cc1ccc(Cl)cc1NC(=O)C1CC(=O)N(Cc2ccccn2)C1 (configuration not stated)	8.15
Clc1cccc2c3c([nH]c12)CCN(Cc1cc2n(n1)CCNC2)C3	22.8
Cc1nnc2n1CCN(CC(=O)Nc1cc(C(C)C)no1)C2	-8.51
O=S(=O)(NCCc1c[nH]c2cc(F)ccc12)C1CCOC1 (configuration not stated)	0.583
Cc1cc(C2CCC2)nc(NCCC23CCCN2CCC3)n1	-8.73
Cc1noc(C)c1CN1CCOC(CNc2cccnn2)C1 (configuration not stated)	23.1
Cc1cc(C(=O)N2CCCC(O)(CN3CCCC3)C2)ccc1Cl (configuration not stated)	1.99
COc1cccc2c1CCN(C(=O)NCc1nnc3ccccn13)C2	0.687
CCC[C@H]1CN(c2nc(CO)cs2)C[C@@H]1NC(=O)C1CCC1	-5.73
CN(C)c1ncnc2c1CCN(CC1CCOC1)CC2 (configuration not stated)	-14.4
Cc1ccsc1CN(C)C(=O)Cn1nc(-c2ccc(F)cc2)oc1=O	4.04
O=C(O)CNC(=O)Cc1csc(-c2ccccc2F)n1	18.6
CN(C)C(=O)Cn1cc(C#N)c(=O)c2cc(Br)ccc21	1.29
Cc1nnc2n1CCN(C(=O)CN1C(=O)CSc3ccccc31)C2	-3.59
Cc1nc2c(c(NCc3ccccc3)n1)CCN(C(=O)NC(C)C)CC2	30.7
CCCC1COCCN1Cc1ccc(S(=O)(=O)NC)cc1 (configuration not stated)	7.3
CN(Cc1ccccc1Cl)C(C(=O)O)c1ccc(F)c(CO)c1 (configuration not stated)	-7.98
CN(C)c1ncnc2c1CCN(c1cccc(F)c1)CC2	-3.26
Cc1cccc(N2CCOC(C(=O)O)C2)c1 (configuration not stated)	-6.1
COc1ccc(C(=O)NCCCC2(C3OCCO3)CCOCC2)cc1	-1.34

Structure (SMILES)	cytotoxicity at 70.5 h [%]
O=C(c1cn(Cc2ccccc2)c2ncccc12)N1CCOCC1	2.42
Cc1nnc2n1CCN(CCOc1ccccc1)C2	-11.4
CCCn1cc(C(=O)NC(C)c2c(C)nn(CC)c2C)c(C)n1 (configuration not stated)	-8.59
Cc1cc(C(=O)NCc2ccnc(N3CCN(C)CC3)c2)c(C)s1	-18
CCOC(C)c1noc(CN2CCN(CC3CCCC3)CC2)n1 (configuration not stated)	-6.48
CC(=O)Nc1cccc2c1ccn2CC(=O)Nc1n[nH]c(CC(C)C)n1	-5.98
CCOC1(C)C(=O)c2ccccc2N1Nc1ccccc1C(=O)CC (configuration not stated)	-14.4
Cn1cc(CC(CNC(=O)Nc2cccc(Cl)c2)C(N)=O)cn1 (configuration not stated)	-6.01
NS(=O)(=O)c1ccc(NCc2ccco2)c2ncccc12	8.34
Cc1cccc(CN2CCN(C(=O)c3cc(C4CC4)[nH]n3)CC2)c1	-4.75
COC(=O)CCn1ccc(=O)c2ccccc21	-5.76
COCCOc1ncccc1NCc1nc2ccccc2n1C	-15.1
CCOCC(=O)NCC(C)(O)c1cc(C)oc1C (configuration not stated)	-0.44
O=C(CNC(=O)Nc1c(F)cc(F)cc1-c1ccccc1)NC1CC1	-10.3
CN(C)Cc1ccccc1CN(C)C(=O)c1ccoc1	-8.04
COC(=O)C1CN(Cc2ccc(-c3ccncc3)cc2F)C[C@@H](C)O1 (some centres not stated)	11.8
CC(Cn1ccnc1)NC(=O)NCc1ccc2c(c1)OCCO2 (configuration not stated)	2.17
OC(CNCCc1nnc2ccccn12)c1ccc(F)c(F)c1 (configuration not stated)	-6.79
Cc1ccccc1CN1CCN(CC(=O)Nc2cccnc2)CC1	5.17
Cn1ccnc1SCCNC(=O)c1cc(S(N)(=O)=O)ccc1F	-9.32
